Assays:
[1] = Light sensitivity of the oral solution; format: physicochemical; settings: solution in PEG 400:Ethanol 80:20 w/w
Text: Keep away from direct sunlight and cover with aluminium foil whenever possible.

[2] = target: NS3 serine protease of HCV genotype 1b (Hepatitis C virus genotype 1b, UniProt P26663); assay: Steady state velocity analysis with NS3 serine protease, HCV genotype 1b; format: biochemical; settings: non-covalent, competitive mode of inhibition, read-out: Inhibitor constant (Ki)
Chain of NS3 serine protease of HCV genotype 1b (P26663 1027-1657): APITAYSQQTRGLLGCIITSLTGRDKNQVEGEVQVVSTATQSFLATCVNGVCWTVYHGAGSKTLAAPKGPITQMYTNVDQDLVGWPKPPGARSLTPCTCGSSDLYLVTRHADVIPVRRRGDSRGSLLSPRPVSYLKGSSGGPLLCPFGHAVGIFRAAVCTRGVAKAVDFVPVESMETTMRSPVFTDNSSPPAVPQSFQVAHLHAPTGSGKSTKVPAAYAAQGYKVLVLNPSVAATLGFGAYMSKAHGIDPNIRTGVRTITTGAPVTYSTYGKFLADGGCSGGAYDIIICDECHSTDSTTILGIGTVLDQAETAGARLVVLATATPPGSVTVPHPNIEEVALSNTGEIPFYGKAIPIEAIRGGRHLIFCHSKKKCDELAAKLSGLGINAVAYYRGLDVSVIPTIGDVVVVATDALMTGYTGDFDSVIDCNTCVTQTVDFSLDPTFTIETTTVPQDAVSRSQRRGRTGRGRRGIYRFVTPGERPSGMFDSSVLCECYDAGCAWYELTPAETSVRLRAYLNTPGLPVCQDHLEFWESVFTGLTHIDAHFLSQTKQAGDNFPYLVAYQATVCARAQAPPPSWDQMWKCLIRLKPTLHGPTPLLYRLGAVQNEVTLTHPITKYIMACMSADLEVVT
Chain of NS3 serine protease of HCV genotype 1b (P26663 1658-1711): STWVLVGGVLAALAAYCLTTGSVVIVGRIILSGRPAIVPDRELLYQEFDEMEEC
Text: (§1) A distinguishing feature of the Compound (1) inhibitor series is the presence of a C-terminal carboxylic acid functionality.

[3] = Oral bioavailability in animal species; format: in vivo; settings: various animal species
Text: as §1

[4] = system: NS3 protease-dependent polyprotein processing; assay: NS3 protease-dependent polyprotein processing in HCV replicon-containing cells; format: cell-based
Text: as §1

HCV = assay: Clinical study in patients with chronic HCV infection, viral load; format: in vivo, human; settings: HCV infected patients, oral formulation, within 48 hours after first administration, some patients
Method: (§2) In a first single rising dose trial in healthy male subjects the tolerability and pharmacokinetic parameters of Compound (1) were investigated. […] The degree of viral load reduction upon administration of Compound (1) was a significant and unexpected finding, with some patients even experiencing up to a 3 log reduction in viral load within 48 hours after the first administration of Compound (1).
The term “viral load” with respect to HCV in a mammal means the number of HCV mRNA genome copies per ml of serum present in the mammal. The viral load value can be measured, for example, by mRNA-PCR quantitation in blood samples using Cobas Amplicor HCV Monitor v 2.0 (Roche Diagnostics); Amplicor HCV v 2.0, Roche Diagnostics; HCV Transcription Mediated Amplification (TMA) assay, Bayer Diagnostics; HCV RNA Qualitative Testing (TMA) assay, Bayer Diagnostics; the HCV branched DNA (bDNA) assay version 3.0, Bayer Diagnostics; Versant HCV RNA 3.0 Assay (bDNA), Bayer Diagnostics, and Superquant assay, National Genetics Institute (Los Angeles, Calif.).
The degree of viral load reduction upon the administration of Compound (1) was a significant and unexpected finding, with some patients even experiencing up to a 3 log reduction in viral load within 48 hours after the first administration of Compound (1). […]

HCV RNA replication = HCV RNA replication in the replicon cell model system; format: cell-based; settings: human cells
Text: as §1

[5] = Single rising dose trial in healthy male subjects; format: in vivo, human
Method: as §2

[6] = target: NS3 serine protease of HCV genotype 1a (Hepatitis C virus genotype 1a, UniProt P27958); assay: Steady state velocity analysis with NS3 serine protease, HCV genotype 1a; format: biochemical; settings: non-covalent, competitive mode of inhibition, read-out: Inhibitor constant (Ki)
Chain of NS3 serine protease of HCV genotype 1a (P27958 1027-1657): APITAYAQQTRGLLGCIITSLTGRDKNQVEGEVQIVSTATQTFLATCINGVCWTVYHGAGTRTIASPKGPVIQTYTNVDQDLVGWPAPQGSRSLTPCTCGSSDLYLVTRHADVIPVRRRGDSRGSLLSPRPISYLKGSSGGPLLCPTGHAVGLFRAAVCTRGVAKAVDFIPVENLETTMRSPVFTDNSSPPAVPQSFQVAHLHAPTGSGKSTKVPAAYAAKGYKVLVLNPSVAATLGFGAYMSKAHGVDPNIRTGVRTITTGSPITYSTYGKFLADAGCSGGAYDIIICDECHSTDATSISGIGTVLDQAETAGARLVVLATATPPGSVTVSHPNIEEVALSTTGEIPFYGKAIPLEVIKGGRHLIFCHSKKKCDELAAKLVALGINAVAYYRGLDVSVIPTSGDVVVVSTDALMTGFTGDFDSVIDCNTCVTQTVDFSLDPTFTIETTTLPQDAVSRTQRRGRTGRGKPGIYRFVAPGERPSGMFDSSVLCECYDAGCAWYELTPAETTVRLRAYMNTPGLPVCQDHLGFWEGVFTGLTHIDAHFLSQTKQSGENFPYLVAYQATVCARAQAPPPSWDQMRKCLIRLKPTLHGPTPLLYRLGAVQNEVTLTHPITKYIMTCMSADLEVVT
Chain of NS3 serine protease of HCV genotype 1a (P27958 1658-1711): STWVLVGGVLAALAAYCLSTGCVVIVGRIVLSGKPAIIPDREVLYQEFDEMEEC
Text: as §1

COc1ccc2c(O[C@@H]3C[C@H]4C(=O)N[C@]5(C(=O)O)C[C@H]5/C=C\CCCCC[C@H](NC(=O)OC5CCCC5)C(=O)N4C3)cc(-c3csc(NC(C)C)n3)nc2c1 [Compound (1)]
Light sensitivity [1]: light sensitive | Ki [2]: 0.66 nM | Oral bioavailability [3]: orally bioavailable | Ability to block NS3 protease-dependent polyprotein processing [4]: block NS3 protease-dependent polyprotein processing | Reduction in viral load (HCV): ≤ 3 log | Inhibition of HCV RNA replication (HCV RNA replication): low nanomolar inhibition | Tolerability [5]: well tolerated up to 2000 mg | Ki [6]: 0.3 nM

Source: US20040138109A1, “Potent inhibitor of HCV serine protease” (Boehringer Ingelheim Pharmaceuticals, Inc., priority 2002, published 2004)
